Common to all, as to format: in vivo
Test [1] concerns C57BL/6 mice. The experiment in a line: Fatty liver disease caused by non-chemical injury (STZ + high-fat diet Metabolic Syndrome model), histology and blood/plasma biochemistry. To be noted: 48 mg/kg oral twice a day. An excerpt: (§1) In order to simulate an unhealthy diet tendency in humans, such as excess consumption of high caloric food, the example constructs an animal model using […] fed a high fat diet to evaluate the effects of chronic liver injury.
(§2) The assay simulates liver disease caused by a high fat diet through a “Metabolic Syndrome” model. That is, the model is different from conventional chemical induced models caused by toxic components such as CCl4. This model is distinguishable from the models caused by virus or alcohol.
(§3) The establishment of a long term high-fat diet is described as follows: First, the C57BL/6 mice were obtained from Charles River Laboratories Japan (Kanagawa, Japan). Animals were housed under specific-pathogen-free (SPF) conditions. The liver injury was developed in 18 male mice by subcutaneous injection of Streptozotocin (STZ) 2 days after birth (day 2). After 4 weeks, a high-fat commercial rodent diet ad libitum (CLEA JAPAN) were supplied. These mice were randomized into 3 groups before the treatment. The test compound was administered in a volume of 10 ml/kg twice a day for three weeks. In the control group (group A), six […] were fed with vehicle (corn oil from Sigma Chemical Co.) via intubation. Six mice in group B were orally administered vehicle and the test compound at a dose of 48 mg/kg twice a day (96 mg/kg per day).
(§4) (1) HE Staining. The HE staining method is performed as follows: Liver slices are cut from the livers' left side, embedded in Tissue-Tek® OCT™ Compounds (Sakura Finetek, Japan), snap frozen in liquid nitrogen, and stored at −80° C. 5 μm sections are cut, air-dried, fixed in acetone, air dried again and finally washed with phosphate buffered saline (PBS). Then, in the hematoxylin and eosin staining method, liver sections will be prefixed in a Bouin solution (formalin-acetic acid) for one week and then stained with Lillie-Mayer's Hematoxylin (Muto Pure Chemicals, Japan) and eosin solution (Wako, Japan) to visualize the lipid deposition, inflammations, cell necrosis and fibrosis, or stained with Masson's trichromic solution to visualize extra cellular matrix and collagen fibers of liver fibrosis development.
(§5) (2) Sirius Red Staining. The Sirius Red staining method is performed as follows: Liver slices are cut from the livers' left side, embedded in Tissue-Tek® OCT™ Compounds (Sakura Finetek, Japan), snap frozen in liquid nitrogen, and stored at −80° C. 5 μm sections are cut, air-dried, fixed in acetone, air dried again and finally washed with phosphate buffered saline (PBS). Then, liver sections are stained with a Picro-Sirius Red Solution (Waldeck GmbH & KG, Germany) to observe collagen deposition.
(§6) (3) Immunohistochemistry of Collagen Type 3. The immunohistochemistry assay for collagen Type 3 is performed as follows: Liver slices are cut from the livers' left side, embedded in Tissue-Tek® OCT™ Compounds (Sakura Finetek, Japan), snap frozen in liquid nitrogen, and stored at −80° C. 5 μm sections are cut, air-dried, fixed in acetone, air dried again and finally washed with phosphate buffered saline (PBS). For immunohistochemistry, endogenous peroxidase activity will be blocked by using 0.03% H2O2 for 5 minutes, followed by incubation with Block Ace (Dainippon Sumitomo Pharm, Japan) for 10 minutes. The sections will be incubated with the optimal dilution of anti-Type 3 collagen antibody overnight at 4° C. After incubation with an appropriate secondary antibody, the substrate reactions are performed using DAB/H2O2 solution (Nichirei, Japan).
(§7) (1) Whole Blood Glucose. Blood samples were collected in heparinized syringes (Novo-Heparin 5,000 units/5 ml, Mochida Pharmaceutical, Japan) by cardiac puncture, kept on ice and centrifuged at 1,000×g at 4° C. for 15 minutes. The supernatant was collected and stored at −80° C. until use. Blood glucose was measured in whole blood samples using G Checker (Sanko Junyaku Co. Ltd., Japan). […]

The subject of test [2] is C57BL/6 mice. The test is described as follows: Fibrosis of steatohepatitis caused by non-chemical injury (STZ + high-fat diet model), histology and blood/plasma biochemistry.
Excerpt: as §1, §2, §3, §4, §5, §6, §7

Test [3] concerns C57BL/6 mice. The test is described as follows: Reduction of fatty liver condition by Compound 1 with ergosterol versus Compound 1 alone (STZ + high-fat diet model), liver histology. The note with it: Compound 1 48 mg/kg twice a day oral, with or without ergosterol 12 mg/kg twice a day.

With `COC1=C(OC)C(O)C(C/C=C(\C)CC/C=C(\C)CCC=C(C)C)C(C)C1=O` (stereo not shown) [Compound 1, 4-hydroxy-2,3-dimethoxy-6-methyl-5 (3,7,11-trimethyl-dodeca-2,6,10-trienyl)-cyclohex-2-enone], the “collagen deposition around the central veins and the bile ducts, Sirius red staining” value in the test with C57BL/6 mice [1] (compared to vehicle Group A) and in the test on C57BL/6 mice [2] (compared to vehicle Group A) was “reduced” in each case. In addition, the “collagen fibers in the sinusoidal area, collagen Type 3 immunostaining” value with C57BL/6 mice [1] (compared to vehicle Group A) and with C57BL/6 mice [2] (compared to vehicle Group A) was “tended to reduce the thickness and/or the length of the collagen fibers” in each case. In addition, the figures for the “infiltration of inflammatory cells, HE-stained liver sections” value with C57BL/6 mice [1] (compared to vehicle Group A) and with C57BL/6 mice [3] (vs vehicle) were “tended to decrease the infiltration of inflammatory cells” and “did not affect the infiltration of inflammatory cells”, respectively. Moreover, the “macro-vesicular fat deposition, HE-stained liver sections” value in the test on C57BL/6 mice [1] (compared to vehicle Group A) and with C57BL/6 mice [2] (compared to vehicle Group A) was “tended to decrease the macro-vesicular fat deposition” each time. Further, the “plasma ALT level” value in the test with C57BL/6 mice [1] (vehicle Group A 64±64) is reported as 34±10 U/L; with C57BL/6 mice [2] (vehicle Group A 47±22), 38±11 U/L. Moreover, the “plasma AST level” value in the test with C57BL/6 mice [1] (vehicle Group A 202±177) turned out to be 141±35 U/L; in the test on C57BL/6 mice [2] (vehicle Group A 143±42, change not significant) it was 167±87 U/L. Besides, the “whole blood glucose level” value in the test on C57BL/6 mice [1] (vehicle Group A 636±137) is 580 ± 122 mg/dL; in the test on C57BL/6 mice [2] (vehicle Group A 728±109), 566 ± 65 mg/dL. Also, the entries for the “plasma triglyceride (TG)” value with C57BL/6 mice [1] (vehicle Group A 643±402) and in the test on C57BL/6 mice [2] (vehicle Group A 758±877) were 229 ± 144 mg/dL and 704 ± 450 mg/dL, respectively. The “collagen deposition, Sirius red staining” value in the test with C57BL/6 mice [3] (vs control group) was “tended only slightly to decrease the collagen deposition”. For the same molecule, the “collagen deposition (thickness of collagen fibers in the sinusoidal area), collagen Type 3 immunostaining” value in the test on C57BL/6 mice [3] (vs vehicle) is reported as “tended to reduce the collagen deposition”. Moreover, the “macro vesicular fat deposition, HE-stained liver sections” value in the test on C57BL/6 mice [3] (vs vehicle) is “tended to decrease the macro vesicular fat deposition”.

The values above are taken from US10959963B2, “Method for the treatment of fatty liver disease” (Golden Biotechnology Corporation, priority 2013, dated 2021).
